Assay: gradient 5% acetonitrile 3 min, to 50% in 2 min, to 85% in 15 min, held 3 min, 100 µL/min
Conditions: column: Zorbax Extend-C18 2.1 x 50 mm; eluents: water / acetonitrile, 0.1% formic acid
How it was run: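 Retention times come from adduct peaks that were picked computationally and then checked by hand. The standards, pure and pooled in mixtures of ~100 molecules, were run on a Zorbax Extend-C18 column (2.1 × 50 mm, 1.8 μm) at 100 μL/min with water and acetonitrile, each with 0.1% formic acid. Detection was by quadrupole time-of-flight mass spectrometry in positive and negative ionization mode, with a dead volume of 40 μL and a dwell volume of 900 μL.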

**Q.** Which RP-LC retention time does the source give for `CCNC(=O)CN1C(=O)CCn2nc(-c3cn(C)c4ccccc34)cc21` here?
**A.** Its RP-LC retention time is 656 s.

**Q.** Which RP-LC retention time does the source give for `Cc1ccc(C2=NC3(CCN(C(C)C)CC3)NC(c3ccccc3O)C2)cc1` (configuration not stated) here?
**A.** Its RP-LC retention time is 612 s.

**Q.** Which RP-LC retention time does the source give for `COCCNC(=O)c1ccc(-c2ccc(N3CCCCC3)nc2)cc1` here?
**A.** The RP-LC retention time was 603 s.

**Q.** For `Cc1nc(N2CCCC2)c2c(C(=O)Nc3ccc(C)c(C)c3)c(C)oc2n1`, which RP-LC retention time is on record?
**A.** The RP-LC retention time was 830 s.

**Q.** Which RP-LC retention time does the source give for `CCNC(=O)Nc1ccc2c(c1)CN(Cc1ccc(F)cc1F)CCO2` here?
**A.** Its RP-LC retention time is 611 s.

**Q.** For `Cc1ccc(CN2CCN(CC(C)C(=O)NCc3ccc(F)cc3F)C(=O)C2=O)cc1` (configuration not stated), which RP-LC retention time is on record?
**A.** Its RP-LC retention time is 755 s.

**Q.** For `CCc1ccc(CNC(=O)C2CCCN(c3nccc(C)n3)C2)cc1` (configuration not stated), which RP-LC retention time is on record?
**A.** Its RP-LC retention time is 820 s.

**Q.** With `CC(C)n1cnc(S(=O)(=O)N2CCCC(C(=O)Nc3ccccc3)C2)c1` (configuration not stated) as the compound, how does the RP-LC retention time read?
**A.** The RP-LC retention time was 768 s.

**Q.** Which RP-LC retention time does the source give for `CCN1C(=O)COc2cc(-c3noc(C(=O)N4CCN(C)CC4)n3)ccc21` here?
**A.** The RP-LC retention time was 616 s.

**Q.** With `CCC(=O)N1CCc2c(sc3ncnc(NCc4cccnc4)c23)C1` as the compound, how does the RP-LC retention time read?
**A.** The RP-LC retention time was 573 s.

**Q.** For `CCc1ccc(NC(=O)Cn2c(N)nc(CC)c(C)c2=O)cc1`, which RP-LC retention time is on record?
**A.** Its RP-LC retention time is 639 s.

**Q.** With `CCOc1cc(C2c3c(n[nH]c3C)C(=O)N2C)ccc1O` (configuration not stated) as the compound, how does the RP-LC retention time read?
**A.** The RP-LC retention time was 626 s.

**Q.** For `Cc1nc(-c2cccc(-c3noc(CNS(=O)(=O)c4ccccc4)n3)c2)cs1`, which RP-LC retention time is on record?
**A.** Its RP-LC retention time is 977 s.

**Q.** With `O=C(NCc1ccc(Cl)cc1)C1=C2CCCN2c2ccc(F)cc2S1(=O)=O` as the compound, how does the RP-LC retention time read?
**A.** Its RP-LC retention time is 941 s.

**Q.** For `CCn1cc(CCNC(=O)Nc2ccccc2Br)c2cccnc21`, which RP-LC retention time is on record?
**A.** The RP-LC retention time was 774 s.

**Q.** Which RP-LC retention time does the source give for `O=C(CN1C(=O)CCCc2cc(S(=O)(=O)N3CCCC3)ccc21)NCc1ccccc1` here?
**A.** The RP-LC retention time was 885 s.

**Q.** Which RP-LC retention time does the source give for `COc1ccc(C2(C(=O)N3CCc4nn(CC5CC5)c(=O)n4CC3)CC2)cc1` here?
**A.** The RP-LC retention time was 709 s.

**Q.** With `CCn1cc(C(=O)Nc2cc(Cl)ccc2C)c2cccnc21` as the compound, how does the RP-LC retention time read?
**A.** Its RP-LC retention time is 922 s.

**Q.** Which RP-LC retention time does the source give for `CCn1ccc2sc(C)c(C(=O)NCc3cccc(OC)c3OC)c2c1=O` here?
**A.** The RP-LC retention time was 814 s.

**Q.** For `CC(C)n1cnnc1CC1CN(C(=O)Nc2cc(F)ccc2F)C1`, which RP-LC retention time is on record?
**A.** Its RP-LC retention time is 631 s.

**Q.** With `Fc1cccc(Cl)c1C1SCc2nc3ccccc3n21` (configuration not stated) as the compound, how does the RP-LC retention time read?
**A.** Its RP-LC retention time is 845 s.

**Q.** For `CN1C(=O)C2(CCN(C(=O)Nc3ccc4c(c3)OCCO4)C2)c2ccccc21` (configuration not stated), which RP-LC retention time is on record?
**A.** Its RP-LC retention time is 748 s.

**Q.** With `CN(C)c1ccc(N2C=C(C(=O)N3CCCC3)S(=O)(=O)c3ccccc32)cc1` as the compound, how does the RP-LC retention time read?
**A.** Its RP-LC retention time is 811 s.

**Q.** With `Cc1c(C(=O)c2ccccc2)c2ccccc2n1C` as the compound, how does the RP-LC retention time read?
**A.** The RP-LC retention time was 1030 s.

**Q.** For `Cc1cc(CN2CCC(CNC(=O)NCc3cccs3)CC2)c(C)o1`, which RP-LC retention time is on record?
**A.** The RP-LC retention time was 578 s.

**Q.** Which RP-LC retention time does the source give for `O=C1CC(C(F)(F)F)c2c(c(C(=O)O)cn2-c2cccc(F)c2)N1` (configuration not stated) here?
**A.** Its RP-LC retention time is 747 s.

**Q.** Which RP-LC retention time does the source give for `CCc1ccc(NC(=O)Cc2c(C)nn(-c3nc(-c4ccc(C)cc4)cs3)c2C)cc1` here?
**A.** The RP-LC retention time was 1320 s.

**Q.** With `O=C(CN1C(=O)C2CCCCN2c2ccc(C(=O)N3CCCCC3)cc21)N1CCc2ccccc2C1` (configuration not stated) as the compound, how does the RP-LC retention time read?
**A.** The RP-LC retention time was 921 s.

**Q.** With `O=C(c1ccc(F)c(F)c1)N1CCN(C(=O)c2nnn3c2COC(c2ccc(Cl)cc2)C3)CC1` (configuration not stated) as the compound, how does the RP-LC retention time read?
**A.** Its RP-LC retention time is 937 s.

**Q.** With `Cc1nc2ccc(C(=O)N(C)C)cc2nc1C` as the compound, how does the RP-LC retention time read?
**A.** Its RP-LC retention time is 618 s.

**Q.** Which RP-LC retention time does the source give for `COCCCNC(=O)C1CCCN(c2ncc(-c3ccc(F)cc3)cn2)C1` (configuration not stated) here?
**A.** Its RP-LC retention time is 824 s.

**Q.** With `O=C(Nc1ccc2cn[nH]c2c1)C1CC1` as the compound, how does the RP-LC retention time read?
**A.** Its RP-LC retention time is 608 s.

**Q.** With `Cc1cccc(NC(=O)C2CCCN(c3cc(=O)n(C)c(=O)n3C)C2)c1` (configuration not stated) as the compound, how does the RP-LC retention time read?
**A.** The RP-LC retention time was 735 s.

**Q.** For `Cc1ccc(S(=O)(=O)N2CC=C(c3cn(C)c4ncccc34)CC2)cc1`, which RP-LC retention time is on record?
**A.** The RP-LC retention time was 990 s.

**Q.** With `Cc1nc2cc(N3CC(C(=O)NCc4ccc(Cl)cc4)CC3=O)ccc2o1` (configuration not stated) as the compound, how does the RP-LC retention time read?
**A.** Its RP-LC retention time is 743 s.

**Q.** Which RP-LC retention time does the source give for `CC1(C(=O)NCc2ccccc2)CCCN(C(=O)Nc2ccc(Cl)cc2)C1` (configuration not stated) here?
**A.** The RP-LC retention time was 962 s.

**Q.** For `CC(=O)N[C@@H]1CN(C(=O)c2cc(Cl)ccc2F)C[C@H]1CO`, which RP-LC retention time is on record?
**A.** Its RP-LC retention time is 608 s.

**Q.** Which RP-LC retention time does the source give for `CN(C)c1ccc(CNC(=O)CCCN2C(=O)CCn3nc(-c4cn(C)c5ccccc45)cc32)cc1` here?
**A.** The RP-LC retention time was 602 s.

**Q.** With `Cc1ccc2oc(N3CCN(C(=O)c4cccc(-c5noc(C)n5)c4)CC3)nc2n1` as the compound, how does the RP-LC retention time read?
**A.** The RP-LC retention time was 623 s.

**Q.** Which RP-LC retention time does the source give for `O=c1oc2cc(S(=O)(=O)NCCO)ccc2c2ccc(S(=O)(=O)NCCO)cc12` here?
**A.** The RP-LC retention time was 589 s.

**Q.** With `Cc1cccc(NS(=O)(=O)c2cc3n(c2)CCCN(C)C3=O)c1C` as the compound, how does the RP-LC retention time read?
**A.** Its RP-LC retention time is 711 s.

**Q.** For `O=C(NC1CCCC1)C1CCN(S(=O)(=O)c2cc(C(=O)N3CCOCC3)cs2)CC1`, which RP-LC retention time is on record?
**A.** Its RP-LC retention time is 682 s.

**Q.** Which RP-LC retention time does the source give for `CCCCn1cnc2c(-c3ccccc3)cn(CC(=O)NC(C)C)c2c1=O` here?
**A.** Its RP-LC retention time is 905 s.

**Q.** With `COCCCNC(=O)C1CCN(c2nc3cccnc3s2)CC1` as the compound, how does the RP-LC retention time read?
**A.** The RP-LC retention time was 623 s.

**Q.** Which RP-LC retention time does the source give for `COc1ccc(OC)c(NC(=O)Cn2cnc3c(sc4nc(-c5ccccc5)ccc43)c2=O)c1` here?
**A.** The RP-LC retention time was 1040 s.

**Q.** For `O=C(CSc1ncccn1)Nc1nc(-c2ccccc2)cs1`, which RP-LC retention time is on record?
**A.** Its RP-LC retention time is 837 s.

**Q.** For `Cc1cc(C)cc(NC(=O)C2CC(=O)N(CCc3c[nH]c4ccc(C)cc34)C2)c1` (configuration not stated), which RP-LC retention time is on record?
**A.** The RP-LC retention time was 923 s.

**Q.** For `Cc1coc(C)c1C(=O)Nc1ncc(Cc2ccc(Cl)cc2)s1`, which RP-LC retention time is on record?
**A.** Its RP-LC retention time is 1020 s.

**Q.** Which RP-LC retention time does the source give for `CSc1ccccc1C(=O)Nc1ccc2cn[nH]c2c1` here?
**A.** Its RP-LC retention time is 673 s.

**Q.** For `O=C(NCC1CCCO1)C1CCN(C(=O)c2ncn3c2COC(c2ccccc2)C3)CC1` (configuration not stated), which RP-LC retention time is on record?
**A.** The RP-LC retention time was 649 s.

**Q.** Which RP-LC retention time does the source give for `CCOc1ccc(NC(=O)Cn2nc(N3CCOCC3)c3ccccc3c2=O)cc1` here?
**A.** Its RP-LC retention time is 774 s.

**Q.** Which RP-LC retention time does the source give for `O=C(c1ccc2ncnc(N3CCCCC3)c2c1)N1CCCCC1` here?
**A.** The RP-LC retention time was 636 s.

**Q.** For `CCCNC(=O)CCc1nc2ccccc2n(CC(=O)NC(C)CC)c1=O` (configuration not stated), which RP-LC retention time is on record?
**A.** The RP-LC retention time was 688 s.

**Q.** For `O=C(NC1CCCC1)C1CCN(Cc2noc(-c3ccc(F)cc3)n2)CC1`, which RP-LC retention time is on record?
**A.** The RP-LC retention time was 647 s.

**Q.** With `CC(C)CC(=O)N1CCN(c2nc(CN3CCC(C)CC3)cs2)CC1` as the compound, how does the RP-LC retention time read?
**A.** The RP-LC retention time was 634 s.

**Q.** Which RP-LC retention time does the source give for `COc1ccc(-c2ccc(=O)n(Cc3nc(-c4ccccc4Cl)no3)n2)cc1` here?
**A.** Its RP-LC retention time is 962 s.

**Q.** Which RP-LC retention time does the source give for `O=C(COc1ccccc1)Nc1ccccc1-c1nc2ccccc2s1` here?
**A.** The RP-LC retention time was 1320 s.

**Q.** Which RP-LC retention time does the source give for `Cc1cc2c(cc1S(=O)(=O)N1CCCC1C(=O)Nc1ccc(Cl)cc1F)OC(C)C(=O)N2` (configuration not stated) here?
**A.** Its RP-LC retention time is 884 s.

**Q.** Which RP-LC retention time does the source give for `Cc1cccc(NC(=O)Cn2nc(N3CCC(C)CC3)c3ccccc3c2=O)c1` here?
**A.** The RP-LC retention time was 1160 s.

**Q.** For `O=C(Nc1ccc(F)cc1Cl)c1c(O)c2cccnc2n(-c2cccc(F)c2)c1=O`, which RP-LC retention time is on record?
**A.** The RP-LC retention time was 1300 s.

**Q.** Which RP-LC retention time does the source give for `Cc1noc(C)c1S(=O)(=O)N1[C@H]2CC[C@@H]1c1cnc(-c3ccccc3)nc1C2` here?
**A.** The RP-LC retention time was 1050 s.

**Q.** Which RP-LC retention time does the source give for `CCNC(=O)c1cnn(-c2ccc(-c3nc(CC)no3)cn2)c1C` here?
**A.** Its RP-LC retention time is 777 s.

**Q.** Which RP-LC retention time does the source give for `CCC1Oc2ccc(S(=O)(=O)N3CCC(C(=O)NCCc4ccccc4)CC3)cc2NC1=O` (configuration not stated) here?
**A.** The RP-LC retention time was 872 s.

**Q.** With `CC1(C)c2ccccc2-c2nc3ccccc3cc2C1O` (configuration not stated) as the compound, how does the RP-LC retention time read?
**A.** The RP-LC retention time was 890 s.

**Q.** For `O=C1NC(C(=O)N2CCOCC2)Cn2cccc21` (configuration not stated), which RP-LC retention time is on record?
**A.** The RP-LC retention time was 568 s.

**Q.** For `CCc1ccc(S(=O)(=O)N2CCCN(C)c3ccccc32)cc1`, which RP-LC retention time is on record?
**A.** The RP-LC retention time was 1100 s.

**Q.** Which RP-LC retention time does the source give for `CCNC(=O)c1nc(-c2ccncc2)cs1` here?
**A.** The RP-LC retention time was 574 s.

— the METLIN SMRT retention time set (Domingo-Almenara et al. 2019)
